In patent publication US9353116B2, “Methods and compositions for kinase inhibition” (THE REGENTS OF THE UNIVERSITY OF CALIFORNIA, priority 2010, dated 2016):
pIC50: −log10 of the molar value. Read-outs that look alike come from different tables or passages of the source.

Assays:
WT c-Src [1] = biological target: T1, WT c-Src (Gallus gallus (Chicken), UniProt P00523); assay: In vitro kinase assay, WT c-Src; assay type: biochemical; settings: inhibitor preincubated with Src ten minutes prior to addition of ATP; read-out: WT c-Src IC50
Procedure: (§1) In vitro kinase assays for c-Src variants were performed in 50 mM Tris (pH 8.0), 10 mM MgCl2 and 1 mg/mL BSA. When obtaining kinetic parameters (kcat, Km) kinase and peptide substrate (IYGEFKKK) (SEQ ID NO:51) concentrations were 2 nM and 500 μM, respectively, while ATP concentrations ranged from 2000-0.655 μM. Addition of nonradioactive ATP supplemented with ^32P ATP (3,000 Ci/mmol, NEN) was used to initiate kinase reactions. Time points were selected such that product formation never exceeded 10%. Reactions were quenched by spotting 3 μL quantities onto phosphocellulose sheets (P81, Whatman). Afterwards, the sheets were washed 3×5 minutes in 0.5% phosphoric acid and dried. Radioactivity was measured by phosphorimaging and recorded on a Typhoon fluorescence imager (Molecular Dynamics). Data were plotted as rate (min^−1) versus ATP concentration and fitted to the Michaelis-Menten equation, v=[(kcat)[S]]/(Km+[S]), using Kaleidagraph software (Synergy) to extract kinetic parameters. When obtaining IC50 values for the inhibitors, 2% (v/v) DMSO was included in kinase reactions. In these cases ATP, peptide, and enzyme concentrations were 15 nM, 100 μM and 5 nM, respectively, while inhibitor concentrations ranged from 10,000-0.610 nM. In all cases, a ten-minute preincubation step between the kinase and the inhibitor preceded addition of ATP and a fifteen-minute reaction. The data was fitted to a sigmoidal dose-response curve using Prism 4.0c (GraphPad Software) to obtain IC50 values.

I338T v-Src = I338T v-Src (Rous sarcoma virus (strain H-19), UniProt P25020, I338T); assay type: cell-based
Procedure: (§2) Curr Biol 8(5):257-266. Cells were grown to 60-90% confluence in DMEM supplemented with fetal bovine serum (10%), penicillin ‘G’ (100 units/ml) and streptomycin sulfate (100 μg/ml) (PenStrep, UCSF Cell Culture Facility) prior to treatment with kinase inhibitors dissolved in DMSO (final DMSO concentration, 0.5%). Following 1 hour of incubation with inhibitors at 37° C., cells were harvested in lysis buffer (50 mM Tris (pH 7.4), 300 mM NaCl, 5 mM EDTA, 1% triton, 0.02% NaN3, 1× complete mini protease inhibitor (Roche), 1 mM PMSF, 1×PHOS-stop (Roche), 0.02 μM microcystin, 2 mM sodium orthovanadate), normalized for concentration and analyzed by Western blot for global phosphotyrosine levels (4G10, Millipore, 1:1000). Levels of β-actin (β-actin Antibody, Cell Signaling, 1:1000) and v-Src (Src 32G6 rabbit mAb, Cell Signaling, 1:1000) were ascertained by Western blot.
(§3) I338C (v-Src-ES1, SEQ ID NO:48), I338T (SEQ ID NO:49), I338G (v-Src-AS1, SEQ ID NO:50) and WT v-Src-transformed NIH-3T3 cell lines were generated. Unlike c-Src, v-Src is constitutively active and harbors an isoleucine gatekeeper. The I338T v-Src variant was generated for consistency with the in vitro c-Src studies. For each cell line, global levels of phosphotyrosine were analyzed (FIG. 7). […]

v-Src-ES1 (I338C) = v-Src-ES1 (I338C) (Rous sarcoma virus (strain H-19), UniProt P25020, I338C); assay: Inhibition assay with v-Src-ES1 transformed NIH-3T3 cells; assay type: cell-based
Procedure: as §2, §3

WT c-Src [2] = biological target: T1, WT c-Src; assay: Gel filtration and kinetic assay, WT c-Src; assay type: biochemical; settings: 23 μM inhibitor, 25 minutes, then PD10 desalting
Procedure: (§4) Inhibitors (final concentration 23 μM) were incubated with c-Src variants (final concentration 11.5 μM) in kinase reaction buffer (50 mM Tris pH 8, 100 mM NaCl, 1 mM DTT, 5% glycerol, 5% DMSO) for 25 minutes at room temperature. The solutions (2.6 mL total) were then passed over PD10 desalting columns (GE Healthcare) using the kinase reaction buffer for elution. Src concentrations were calculated using the extinction coefficient for c-Src (51.140 mM^−1cm^−1) {Seeliger, 2005 #100}. Kinase assays were performed as described in the experimental section at a final enzyme concentration of 10 nM.

T338C c-Src [3] = biological target: T2, T338C c-Src (Gallus gallus (Chicken), UniProt P00523, T338C); assay: Full protein mass spectrometry of covalent labeling; assay type: binding; settings: two equivalents of inhibitor
Procedure: Protein labeling conditions: Kinase labeling reactions were performed by incubating 30 μL quantities of c-Src variants (in 50 mM Tris pH 8, 100 mM NaCl, 1 mM DTT, 5% glycerol) with two equivalents of inhibitor in DMSO (final DMSO concentration=2.4%). The covalent labeling reaction was quenched by removing 4 μL and adding it to 31 μL of 0.1% formic acid. The sample was then analyzed by ES1-oa-TOF mass spectrometry.

T338C c-Src [4] = biological target: T2, T338C c-Src; assay: Gel filtration and kinetic assay, T338C c-Src; assay type: biochemical; settings: 23 μM inhibitor, 25 minutes, then PD10 desalting
Procedure: as §4

T338C c-Src [5] = biological target: T2, T338C c-Src; assay: In vitro kinase assay, T338C c-Src (c-Src-ES1); assay type: biochemical
Procedure: as §1, with “In all cases, a ten-minute preincubation step between the kinase and the inhibitor preceded addition of ATP and a fifteen-minute reaction.” left out

Question: Which results are given for `CC(C)n1nc(Cc2cccc(C(=O)CF)c2)c2c(N)ncnc21` [Compound 13, 1-(3-((4-amino-1-isopropyl-1H-pyrazolo[3,4-d]pyrimidin-3-yl)methyl)phenyl)-2-fluoroethanone]?
Answer: pIC50 (WT c-Src [1]): < 5.30; inhibition of I338T v-Src in cells (global phosphotyrosine levels) (I338T v-Src): neither 9 nor 13 inhibited I338T v-Src; inhibition of v-Src-ES1 in cells (global phosphotyrosine levels) (v-Src-ES1 (I338C)): inhibited v-Src-ES1 in a dose-dependent manner; inhibitory activity after gel filtration, WT c-Src (WT c-Src [2]): lost; covalent labeling / adduct formation by full protein mass spectrometry (T338C c-Src [3]): not observed; inhibitory activity after gel filtration, T338C c-Src (T338C c-Src [4]): retained; time dependence of inhibition of T338C c-Src (T338C c-Src [5]): time-dependent manner; IC50 (T338C c-Src [5]; ES1 = T338C, read-out: c-Src variant IC50 (nM) ES1): 338 nM; fold more potent than the corresponding ketone 14 (T338C c-Src [5]; T338C c-Src): > 13 fold; IC50 (T338C c-Src [5]; T338C c-Src IC50 (nM), preincubation time 2 min): 1280 nM; IC50 (T338C c-Src [5]; T338C c-Src IC50 (nM), preincubation time 20 min): 318 nM; IC50 (T338C c-Src [5]; T338C c-Src IC50 (nM), preincubation time 40 min): 136 nM; pIC50 (T338C c-Src [5]; inhibitor preincubated with Src ten minutes prior to addition of ATP, read-out: T338C c-Src IC50): 6.47
